Results on 2 compounds are retold here after ChEMBL document CHEMBL3632554, “Ligand binding studies, preliminary structure-activity relationship and detailed mechanistic characterization of 1-phenyl-6,6-dimethyl-1,3,5-triazine-2,4-diamine derivatives as inhibitors of Escherichia coli dihydrofolate reductase” (Eur J Med Chem, 2015).

Structures are written as SMILES. Calls of active or inactive are those of the source. The calls are words filed in the database; no cut-off is given here.

The target in the test is T1, Dihydrofolate reductase (Escherichia coli) (UniProt P0ABQ4).
T1 sequence (whole entry): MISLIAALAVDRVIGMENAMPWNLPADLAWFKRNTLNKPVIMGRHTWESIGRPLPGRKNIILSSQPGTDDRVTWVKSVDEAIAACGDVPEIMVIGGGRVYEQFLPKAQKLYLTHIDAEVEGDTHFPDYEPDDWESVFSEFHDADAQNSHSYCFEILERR
Description: Inhibition of Escherichia coli DHFR assessed as NADP formation by quadratic Morrison plot analysis

In the case of `CN(C)c1ccc(N2C(N)=NC(N)=NC2(C)C)cc1`, the “Ki(app)” value was “inactive”.
The entry for `CC1(C)N=C(N)N=C(N)N1c1ccc(CCCCc2ccc(Cl)cc2Cl)cc1` is “inactive”.
